{
  "source": "patent US7959951B2",
  "about": "“Nitric oxide and its biomedical significance” (The Research Foundation at State University of New York, priority 2002, dated 2011)",
  "system": "E. coli bacteria",
  "assay": "Inhibition of bacterial growth in LB broth culture",
  "assay_type": "cell-based",
  "conditions": "One μg/ml in LB broth, 37° C, streaked on LB-agar",
  "protocol": "A dried, powdered, formulation of a 1:1 mixture of the wheat grass extract and white willow bark extract prepared in Example 1 above was tested for its ability to inhibit bacterial growth in culture. The formulation was reconstituted in 10 ml of LB broth (Amersham Biosciences, Inc.). The broth was then inoculated with E. coli bacteria and incubated for 5 and 24 hours at 37° C. 20 μl of the cultures were streaked on LB-agar plates and incubated overnight at 37° C. […] An additional control experiment was conducted with the known antibacterial agent, SNAP. One μg/ml SNAP was added to LB broth. The broth was then inoculated with E. coli bacteria and incubated for 5 and 24 hours at 37° C. 20 μl of the cultures were streaked on LB-agar plates and incubated overnight at 37° C. Bacterial growth was decreased in the SNAP culture at 5 and 24 hours, as compared to the control.",
  "data": [
    {"compound": "CC(=O)N[C@@H](C(=O)O)C(C)(C)SN=O", "note": "(racemic) [SNAP]", "values": [
      {"measurement": "bacterial growth at 5 and 24 hours compared to control", "value": "decreased"}
    ]}
  ]
}
